Measurements: patent US12274684B2, “Treatment of vasculopathy with prostacyclin and mesenchymal stem cells” (United Therapeutics Corporation, priority 2013, dated 2025)
Values joined by “and” are separate entries in the source; they are usually repeats but may differ in a detail not shown here. Equal entries are not always repeated.

System: human bone marrow MSC
Test: Microarray gene expression analysis of MSC (Illumina Human HT12 Expression BeadChip)
Type: cell-based
Conditions: Tre(+) 250 μg/mL, 24 h
Method: Human bone marrow MSC were expanded and seeded into six (6) T225 flasks using standard growth medium (Table 1). At 95-99% confluency, cells were thoroughly washed with PBS. Three (3) flasks were replenished with basal media containing 250 μg/mL treprostinil, (+)Tre, and the remaining three (3) flasks were replenished with unsupplemented basal media, (−)Tre. After 24 hours of culture, representative images were captured from (+) Tre and (−) Tre cultures. Conditioned media was collected from each replicate, divided into two samples of appropriate volumes, and analyzed separately for: 1) secreted proteins (Myriad RBM InflammationMAP® 1.0) and 2) exosome RNA content. Cells were lysed directly from culture flasks, processed for total RNA isolation, and analyzed for gene expression by microarray (Illumina Human HT12 Expression BeadChip). Microarray gene expression analysis was also performed on MSC from cultures without (−) or with (+) 250 ug/mL treprostinil. Three (3) biological replicates from each condition were analyzed. Of the 77,612 sequences identified among all replicates, only 24,273 were detected above the arbitrary background of 50 counts. 2,984 RNA sequences were unique to Tre(−) cultures, while 1,781 RNA sequences were unique to Tre(+) cultures (panel A). Genes detected in both conditions were further analyzed for differential expression (panel). […] Genes that are expressed only in Tre(−) cultures (that is to say, completely turned off in the Tre(+) cultures) are shown in Table 5.

## CCCCC[C@H](O)CC[C@@H]1[C@H]2Cc3cccc(OCC(=O)O)c3C[C@H]2C[C@H]1O [treprostinil]
  SLC14A1 (NM_015865) expression, Rep 1-3 (Table 4): 95 counts and 102 counts and 67 counts
  SLC16A6 (NM_004694) expression, Rep 1-3: 975 counts and 1342 counts and 784 counts
  SREBF1 (NM_004176) expression, Rep 1-3: 1709 counts and 1842 counts and 1577 counts
  ST6GALNAC6 (NM_013443) expression, Rep 1-3: 424 counts and 651 counts and 445 counts
  TRH (NM_007117) expression, Rep 1-3: 419 counts and 697 counts and 428 counts
  VEGFA (NM_001025370) expression, Rep 1-3: 4761 counts and 6614 counts and 4293 counts
  VEGFA (NM_001171626) expression, Rep 1-3: 6586 counts and 9874 counts and 6349 counts
Tre(−) AVG 0
  GDNF (NM_199231) expression, AVG: 751 counts
  HAS1 (NM_001523) expression, AVG, second entry: 958 counts
Tre(−) AVG 2
  ST6GALNAC6 (NM_013443) expression, AVG: 506 counts
Tre(−) AVG 4
  ANGPTL4 (NM_139314) expression, AVG: 1759 counts
Tre(−) AVG 10
  ATP6V0D2 (NM_152565) expression, AVG: 646 counts
  SLC16A6 (NM_004694) expression, AVG: 1034 counts
Tre(−) AVG 11
  TRH (NM_007117) expression, AVG: 515 counts
Tre(−) AVG 14
  PDE4B (NM_001037339) expression, AVG: 1196 counts
Tre(−) AVG 16
  NGFR (NM_002507) expression, AVG: 1370 counts
  PDE4D (NM_001197222) expression, AVG: 1677 counts
  SLC4A2 (NM_001199693) expression, AVG: 524 counts
Tre(−) AVG 23
  HAS1 (NM_001523) expression, AVG, first entry: 1728 counts
Tre(−) AVG 26
  ATF3 (NM_001030287) expression, AVG: 1207 counts
Tre(−) AVG 27
  KYNU (NM_003937) expression, AVG: 862 counts
Tre(−) AVG 33
  PDK4 (NM_002612) expression, AVG: 1399 counts
Tre(−) AVG 36
  PDE4D (NM_001197221) expression, AVG: 1124 counts
  STC1 (NM_003155) expression, AVG: 1584 counts
Tre(−) AVG 37
  ATF3 (NM_001674) expression, AVG: 676 counts
Tre(−) AVG 39
  BMP6 (NM_001718) expression, AVG: 1324 counts
Tre(−) AVG 40
  KTN1 (NM_001079522) expression, AVG: 579 counts
  SEC31A (NM_001077207) expression, AVG: 732 counts
Tre(−) AVG 42
  PLOD2 (NM_000935) expression, AVG: 1258 counts
Tre(−) AVG 43
  GDNF (NM_000514) expression, AVG: 786 counts
Tre(−) AVG 46
  PTGS2 (NM_000963) expression, AVG: 10888 counts
Tre(−) AVG 48
  PAQR5 (NM_017705) expression, AVG: 704 counts
Tre(−) AVG 50
  IL11 (NM_000641) expression, AVG: 929 counts
Tre(−) AVG 51
  SCG2 (NM_003469) expression, AVG: 1090 counts
Tre(−) AVG 52
  PITPNC1 (NM_181671) expression, AVG: 824 counts
Tre(−) AVG 53
  IGFBP1 (NM_000596) expression, AVG: 6304 counts
Tre(−) AVG 54
  SLC6A15 (NM_182767) expression, AVG: 1277 counts
Tre(−) AVG 55
  HSD11B1 (NM_005525) expression, AVG: 849 counts
  NR4A2 (NM_006186) expression, AVG: 679 counts
Tre(−) AVG 58
  PTP4A1 (NM_003463) expression, AVG: 685 counts
  SIK1 (NM_173354) expression, AVG: 1183 counts
Tre(−) AVG 63
  IL6 (NM_000600) expression, AVG: 6859 counts
Tre(−) AVG 77
  SMOX (NM_175840) expression, AVG: 955 counts
Tre(−) AVG 78
  PALLD (NM_001166110) expression, AVG: 1033 counts
Tre(−) AVG 85
  DUSP1 (NM_004417) expression, AVG: 1092 counts
Tre(−) AVG 89
  SAT1 (transcript variant 2, non-coding RNA) expression, AVG: 1208 counts
Tre(−) AVG 91
  PRKAG2 (NM_024429) expression, AVG: 7155 counts
Tre(−) AVG 129
  LIPG (NM_006033) expression, AVG: 1702 counts
Tre(−) AVG 132
  IER3 (NM_003897) expression, AVG: 2974 counts
Tre(−) AVG 148
  SREBF1 (NM_004176) expression, AVG: 1709 counts
Tre(−) AVG 155
  IDH1 (NM_005896) expression, AVG: 2039 counts
Tre(−) AVG 176
  C11orf96 (NM_001145033) expression, AVG: 2105 counts
Tre(−) AVG 202
  CD55 (NM_001114752) expression, AVG: 2663 counts
Tre(−) AVG 355
  GPRC5A (NM_003979) expression, AVG: 4684 counts
Tre(−) AVG 359
  CD55 (NM_000574) expression, AVG: 7712 counts
Tre(−) AVG 386
  VEGFA (NM_001025370) expression, AVG: 5223 counts
Tre(−) AVG 421
  GDF15 (NM_004864) expression, AVG: 13505 counts
Tre(−) AVG 504
  TIAM2 (NM_012454) expression, AVG: 20 counts
Tre(−) AVG 511
  KIAA0930 (NM_015264) expression, AVG: 48 counts
Tre(−) AVG 523
  CALD1 (NM_033140) expression, AVG: 0 counts
Tre(−) AVG 526
  MBNL1 (NM_207297) expression, AVG: 46 counts
Tre(−) AVG 538
  NAP1L3 (NM_004538) expression, AVG: 48 counts
